Experimental data: article PMC10507085, “Pharmacological inhibition of TBK1/IKKε blunts immunopathology in a murine model of SARS-CoV-2 infection” (Nature Communications, 2023)

Experiments:
Test in all cases: biochemical
Parameters in all cases: KINOMEscan competition binding, DNA-tagged kinase against immobilised ligand, qPCR read-out
Conditions in all cases: read-out: Percent Control
STK16 = STK16 (Homo sapiens, UniProt O75716)
NEK7 = NEK7 (Homo sapiens, UniProt Q8TDX7)
CDK19 = CDK19 (Homo sapiens, UniProt Q9BWU1)
MYLK2 = MYLK2 (Homo sapiens, UniProt Q9H1R3)
GAK = GAK (Homo sapiens, UniProt O14976)
PIK3C2G = PIK3C2G (Homo sapiens, UniProt O75747)
ACVRL1 = ACVRL1 (Homo sapiens, UniProt P37023)
MAP2K2 = MAP2K2 (Homo sapiens, UniProt P36507)
PAK6 = PAK6 (Homo sapiens, UniProt Q9NQU5)
DCLK1 = DCLK1 (Homo sapiens, UniProt O15075)
HCK = HCK (Homo sapiens, UniProt P08631)
MAP4K1 = MAP4K1 (Homo sapiens, UniProt Q92918)
CDKL5 = CDKL5 (Homo sapiens, UniProt O76039)
CSNK1G3 = CSNK1G3 (Homo sapiens, UniProt Q9Y6M4)
RIOK3 = RIOK3 (Homo sapiens, UniProt O14730)
PAK7 = target: T1, PAK7 (Homo sapiens, UniProt Q9P286)
T1 construct: gene PAK5

TAOK3 = TAOK3 (Homo sapiens, UniProt Q9H2K8)
CDK4-cyclinD1 = CDK4-cyclinD1 (Homo sapiens, UniProt P11802)
EPHB4 = EPHB4 (Homo sapiens, UniProt P54760)
MELK = MELK (Homo sapiens, UniProt Q14680)

Sequence of PAK6 (Q9NQU5 whole entry): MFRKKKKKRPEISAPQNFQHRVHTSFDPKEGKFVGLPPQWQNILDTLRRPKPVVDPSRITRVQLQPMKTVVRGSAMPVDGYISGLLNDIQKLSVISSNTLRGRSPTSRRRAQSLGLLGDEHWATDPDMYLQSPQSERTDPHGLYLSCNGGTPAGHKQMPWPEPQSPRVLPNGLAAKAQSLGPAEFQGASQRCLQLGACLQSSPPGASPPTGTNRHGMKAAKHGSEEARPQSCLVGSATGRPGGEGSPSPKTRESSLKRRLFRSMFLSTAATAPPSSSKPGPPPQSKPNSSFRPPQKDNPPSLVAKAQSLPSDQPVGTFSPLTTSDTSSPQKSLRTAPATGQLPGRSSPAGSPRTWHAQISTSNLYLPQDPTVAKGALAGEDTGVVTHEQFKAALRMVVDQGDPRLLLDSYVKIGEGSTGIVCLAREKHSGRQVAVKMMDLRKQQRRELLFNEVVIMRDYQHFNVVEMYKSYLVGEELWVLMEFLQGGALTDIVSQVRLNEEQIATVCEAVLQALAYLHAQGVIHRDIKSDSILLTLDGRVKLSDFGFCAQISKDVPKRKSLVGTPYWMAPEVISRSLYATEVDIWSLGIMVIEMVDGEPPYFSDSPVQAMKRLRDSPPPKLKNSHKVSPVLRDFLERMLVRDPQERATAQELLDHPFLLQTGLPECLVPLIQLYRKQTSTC
Sequence of ACVRL1 (P37023 whole entry): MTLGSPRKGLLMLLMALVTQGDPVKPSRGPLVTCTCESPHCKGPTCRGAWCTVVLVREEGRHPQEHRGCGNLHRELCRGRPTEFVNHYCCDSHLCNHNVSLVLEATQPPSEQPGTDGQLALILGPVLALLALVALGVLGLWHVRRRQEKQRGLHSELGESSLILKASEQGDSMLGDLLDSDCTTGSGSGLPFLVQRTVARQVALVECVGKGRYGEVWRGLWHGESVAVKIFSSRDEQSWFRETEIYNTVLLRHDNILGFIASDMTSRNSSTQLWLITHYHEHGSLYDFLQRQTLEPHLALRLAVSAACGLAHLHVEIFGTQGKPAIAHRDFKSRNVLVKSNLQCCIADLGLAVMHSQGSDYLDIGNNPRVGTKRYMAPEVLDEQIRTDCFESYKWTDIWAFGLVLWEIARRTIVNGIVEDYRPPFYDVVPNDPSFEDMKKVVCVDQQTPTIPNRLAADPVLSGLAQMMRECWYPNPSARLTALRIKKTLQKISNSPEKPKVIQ
Sequence of EPHB4 (P54760 whole entry): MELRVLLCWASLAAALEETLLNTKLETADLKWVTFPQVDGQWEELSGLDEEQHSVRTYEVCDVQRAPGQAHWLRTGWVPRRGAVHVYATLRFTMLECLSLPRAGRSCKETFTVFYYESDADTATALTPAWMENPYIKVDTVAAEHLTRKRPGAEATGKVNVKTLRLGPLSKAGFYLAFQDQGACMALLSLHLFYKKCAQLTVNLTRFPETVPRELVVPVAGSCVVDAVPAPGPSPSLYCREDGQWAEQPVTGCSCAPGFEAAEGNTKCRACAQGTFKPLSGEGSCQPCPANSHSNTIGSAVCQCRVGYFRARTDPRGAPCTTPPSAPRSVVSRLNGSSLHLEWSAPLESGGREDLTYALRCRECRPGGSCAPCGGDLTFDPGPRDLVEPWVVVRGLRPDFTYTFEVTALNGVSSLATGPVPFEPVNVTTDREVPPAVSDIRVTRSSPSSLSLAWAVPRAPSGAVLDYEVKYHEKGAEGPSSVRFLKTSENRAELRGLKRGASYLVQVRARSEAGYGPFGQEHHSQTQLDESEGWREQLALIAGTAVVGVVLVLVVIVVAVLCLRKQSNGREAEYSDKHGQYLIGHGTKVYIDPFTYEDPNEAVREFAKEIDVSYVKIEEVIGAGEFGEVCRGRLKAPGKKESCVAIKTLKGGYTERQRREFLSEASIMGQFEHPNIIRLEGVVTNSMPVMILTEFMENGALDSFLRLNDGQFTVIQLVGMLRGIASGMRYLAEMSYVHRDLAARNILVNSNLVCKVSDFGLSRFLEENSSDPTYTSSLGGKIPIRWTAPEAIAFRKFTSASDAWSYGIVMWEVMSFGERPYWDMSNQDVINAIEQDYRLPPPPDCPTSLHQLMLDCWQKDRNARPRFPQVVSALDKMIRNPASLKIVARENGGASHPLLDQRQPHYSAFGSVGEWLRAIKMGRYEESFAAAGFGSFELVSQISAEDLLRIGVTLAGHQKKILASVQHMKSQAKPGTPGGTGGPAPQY
Sequence of HCK (P08631 whole entry): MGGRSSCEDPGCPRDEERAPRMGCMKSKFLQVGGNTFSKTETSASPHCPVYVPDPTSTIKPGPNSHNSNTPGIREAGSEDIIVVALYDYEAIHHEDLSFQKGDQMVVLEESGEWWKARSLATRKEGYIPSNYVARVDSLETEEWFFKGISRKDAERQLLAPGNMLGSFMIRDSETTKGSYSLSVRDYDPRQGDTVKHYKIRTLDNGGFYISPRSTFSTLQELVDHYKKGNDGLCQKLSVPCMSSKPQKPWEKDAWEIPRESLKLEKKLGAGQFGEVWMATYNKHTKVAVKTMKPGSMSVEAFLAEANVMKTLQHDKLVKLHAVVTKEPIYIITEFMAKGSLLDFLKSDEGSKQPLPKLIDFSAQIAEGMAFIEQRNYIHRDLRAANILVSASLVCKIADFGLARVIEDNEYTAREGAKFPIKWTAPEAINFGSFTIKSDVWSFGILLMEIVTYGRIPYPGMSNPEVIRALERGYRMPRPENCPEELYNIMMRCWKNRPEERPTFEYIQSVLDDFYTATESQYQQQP
Sequence of CDKL5 (O76039 whole entry): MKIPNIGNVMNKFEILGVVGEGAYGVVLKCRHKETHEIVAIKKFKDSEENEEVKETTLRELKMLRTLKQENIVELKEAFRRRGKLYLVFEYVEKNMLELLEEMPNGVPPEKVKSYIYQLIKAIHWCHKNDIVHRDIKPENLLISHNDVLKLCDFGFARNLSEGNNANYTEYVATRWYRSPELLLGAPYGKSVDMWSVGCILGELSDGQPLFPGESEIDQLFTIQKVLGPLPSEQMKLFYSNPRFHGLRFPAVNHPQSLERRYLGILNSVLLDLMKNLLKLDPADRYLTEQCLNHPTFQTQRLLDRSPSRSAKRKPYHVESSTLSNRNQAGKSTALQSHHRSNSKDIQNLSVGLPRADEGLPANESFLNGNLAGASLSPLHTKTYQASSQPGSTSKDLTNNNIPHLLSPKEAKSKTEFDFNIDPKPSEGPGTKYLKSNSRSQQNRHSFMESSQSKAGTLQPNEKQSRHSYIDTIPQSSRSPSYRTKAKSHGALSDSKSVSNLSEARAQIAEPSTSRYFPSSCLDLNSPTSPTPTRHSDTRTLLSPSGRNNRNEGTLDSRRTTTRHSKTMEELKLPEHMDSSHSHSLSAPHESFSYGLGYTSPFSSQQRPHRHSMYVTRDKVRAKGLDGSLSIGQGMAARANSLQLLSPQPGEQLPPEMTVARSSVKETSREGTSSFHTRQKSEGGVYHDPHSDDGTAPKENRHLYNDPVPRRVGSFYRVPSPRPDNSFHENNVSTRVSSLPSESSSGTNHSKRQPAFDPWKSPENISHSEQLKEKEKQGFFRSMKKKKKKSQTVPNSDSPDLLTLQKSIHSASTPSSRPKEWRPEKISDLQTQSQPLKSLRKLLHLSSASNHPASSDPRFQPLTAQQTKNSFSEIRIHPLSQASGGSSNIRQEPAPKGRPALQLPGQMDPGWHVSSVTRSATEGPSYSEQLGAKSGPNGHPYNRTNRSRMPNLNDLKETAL
Sequence of CDK4-cyclinD1 (P11802 whole entry): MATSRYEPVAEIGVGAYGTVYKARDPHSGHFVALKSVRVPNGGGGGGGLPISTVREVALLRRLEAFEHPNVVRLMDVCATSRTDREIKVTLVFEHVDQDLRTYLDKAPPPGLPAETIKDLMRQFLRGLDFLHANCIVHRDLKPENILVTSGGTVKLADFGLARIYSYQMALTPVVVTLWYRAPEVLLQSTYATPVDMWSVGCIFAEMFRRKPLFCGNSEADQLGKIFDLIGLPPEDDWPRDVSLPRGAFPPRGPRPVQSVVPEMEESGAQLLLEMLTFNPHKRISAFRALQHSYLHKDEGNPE
Sequence of CDK4-cyclinD1 (P24385 whole entry partner): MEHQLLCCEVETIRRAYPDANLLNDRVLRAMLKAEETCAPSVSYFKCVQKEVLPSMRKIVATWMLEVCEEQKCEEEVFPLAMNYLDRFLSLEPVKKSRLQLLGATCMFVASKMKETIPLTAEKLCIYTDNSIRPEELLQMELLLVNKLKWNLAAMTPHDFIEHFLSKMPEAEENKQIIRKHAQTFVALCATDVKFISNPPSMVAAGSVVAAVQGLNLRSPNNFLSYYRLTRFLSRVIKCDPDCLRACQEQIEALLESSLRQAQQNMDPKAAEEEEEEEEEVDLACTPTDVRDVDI
Sequence of MAP2K2 (P36507 whole entry): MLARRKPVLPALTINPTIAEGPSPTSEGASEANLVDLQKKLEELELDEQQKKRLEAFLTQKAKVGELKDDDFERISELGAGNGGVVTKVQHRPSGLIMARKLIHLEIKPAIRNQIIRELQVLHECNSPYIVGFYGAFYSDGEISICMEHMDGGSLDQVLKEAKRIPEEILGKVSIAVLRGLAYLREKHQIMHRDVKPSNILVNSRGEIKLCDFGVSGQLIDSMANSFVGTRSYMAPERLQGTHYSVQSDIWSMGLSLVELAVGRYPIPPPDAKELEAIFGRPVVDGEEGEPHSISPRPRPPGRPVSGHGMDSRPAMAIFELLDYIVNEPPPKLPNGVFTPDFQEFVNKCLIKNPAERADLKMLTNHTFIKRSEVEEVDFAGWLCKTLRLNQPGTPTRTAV
Sequence of STK16 (O75716 whole entry): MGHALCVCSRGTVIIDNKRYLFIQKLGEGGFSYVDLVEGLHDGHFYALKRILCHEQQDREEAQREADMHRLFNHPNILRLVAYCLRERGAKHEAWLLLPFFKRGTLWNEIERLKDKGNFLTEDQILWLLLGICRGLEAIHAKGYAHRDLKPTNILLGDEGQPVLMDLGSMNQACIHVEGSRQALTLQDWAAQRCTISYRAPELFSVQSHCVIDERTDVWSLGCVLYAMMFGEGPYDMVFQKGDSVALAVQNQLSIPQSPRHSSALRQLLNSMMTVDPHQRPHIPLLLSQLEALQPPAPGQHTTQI

**Q.** With `Oc1ccc(C2=Cc3ccc(O)cc3OC2)cc1` [compound 1, idronoxil] as the compound, how does the remaining binding at 10 µM (STK16) read?
**A.** 100%

**Q.** And the remaining binding at 10 µM (NEK7)?
**A.** 99%

**Q.** What about the remaining binding at 10 µM (CDK19) of the same compound?
**A.** 99%

**Q.** And the remaining binding at 10 µM (MYLK2)?
**A.** 80%

**Q.** And the remaining binding at 10 µM (GAK)?
**A.** 58%

**Q.** What about the remaining binding at 10 µM (PIK3C2G) of the same compound?
**A.** 73%

**Q.** And the remaining binding at 10 µM (ACVRL1)?
**A.** 92%

**Q.** And the remaining binding at 10 µM (MAP2K2)?
**A.** 79%

**Q.** What about the remaining binding at 10 µM (PAK6) of the same compound?
**A.** 100%

**Q.** What about the remaining binding at 10 µM (DCLK1) of the same compound?
**A.** 100%

**Q.** What about the remaining binding at 10 µM (HCK) of the same compound?
**A.** 83%

**Q.** What about the remaining binding at 10 µM (MAP4K1) of the same compound?
**A.** 78%

**Q.** What about the remaining binding at 10 µM (CDKL5) of the same compound?
**A.** 97%

**Q.** What about the remaining binding at 10 µM (CSNK1G3) of the same compound?
**A.** 100%

**Q.** And the remaining binding at 10 µM (RIOK3)?
**A.** 100%

**Q.** What about the remaining binding at 10 µM (PAK7) of the same compound?
**A.** 95%

**Q.** What about the remaining binding at 10 µM (TAOK3) of the same compound?
**A.** 53%

**Q.** What about the remaining binding at 10 µM (CDK4-cyclinD1) of the same compound?
**A.** 94%

**Q.** What about the remaining binding at 10 µM (EPHB4) of the same compound?
**A.** 90%

**Q.** What about the remaining binding at 10 µM (MELK) of the same compound?
**A.** 64%
